Legend:
Conditions in all cases: 72 h
HL-60 [1] = system: HL-60
Summary of the method: (§1)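 For the IC50, dose–response curves were fitted with a log-logistic model. The data came from fifteen myeloid leukaemia cell lines grown in RPMI 1640 at densities in the linear growth range and incubated in 384-well plates for 72 h at 37 °C under 5% CO2. Doses were five tenfold steps from 1 to 10,000 nM in duplicate, and luminescent ATP viability was normalised to vehicle and to a positive control at 10 µM before four-parameter fitting.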

NOMO-1 [2] = system: NOMO-1
Summary of the method: as §1

KU-812 [3] = system: KU-812
Summary of the method: as §1

MOLM-13 [4] = system: MOLM-13
Summary of the method: as §1

ML-2 [5] = system: ML-2
Summary of the method: as §1

K-562 [6] = system: K-562
Summary of the method: as §1

SHI-1 [7] = system: SHI-1
Summary of the method: as §1

BV-173 [8] = system: BV-173
Summary of the method: as §1

LAMA-84 [9] = system: LAMA-84
Summary of the method: as §1

MV4-11 [10] = system: MV4-11
Summary of the method: as §1

HEL [11] = system: HEL
Summary of the method: as §1

THP-1 [12] = system: THP-1
Summary of the method: as §1

KCL-22 [13] = system: KCL-22
Summary of the method: as §1

Mono-Mac-6 [14] = system: Mono-Mac-6
Summary of the method: as §1

KG-1 [15] = system: KG-1
Summary of the method: as §1

HL-60 [16] = assay: cell viability (% survival relative to DMSO control, bortezomib = 0%); higher = less cytotoxic
Summary of the method: (§2)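 Seeding density for each of the 10 AML and 5 CML cell lines was titrated to the linear growth range. Cells went into 384-well plates pre-printed in duplicate with compounds at 1, 10, 100, 1000 or 10000 nM and were held for 72 h at 37 °C with 5% CO2. CellTiter-Glo luminescence then provided the readout. Percent survival is expressed relative to vehicle at 100% and a 10 µM positive control at 0%, averaged over duplicates.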

NOMO-1 [17] = assay: as above
Summary of the method: as §2

KU-812 [18] = assay: as above
Summary of the method: as §2

MOLM-13 [19] = assay: as above
Summary of the method: as §2

ML-2 [20] = assay: as above
Summary of the method: as §2

K-562 [21] = assay: as above
Summary of the method: as §2

SHI-1 [22] = assay: as above
Summary of the method: as §2

BV-173 [23] = assay: as above
Summary of the method: as §2

LAMA-84 [24] = assay: as above
Summary of the method: as §2

MV4-11 [25] = assay: as above
Summary of the method: as §2

HEL [26] = assay: as above
Summary of the method: as §2

THP-1 [27] = assay: as above
Summary of the method: as §2

KCL-22 [28] = assay: as above
Summary of the method: as §2

Mono-Mac-6 [29] = assay: as above
Summary of the method: as §2

KG-1 [30] = assay: as above
Summary of the method: as §2

N#Cc1ccc(C2CCCc3cncn32)cc1 (stereo not given) [Fadrozole]
Conditions | IC50 (cell viability) [µM]
BV-173 [8] | > 10
HEL [11] | > 10
HL-60 [1] | > 10
K-562 [6] | > 10
KCL-22 [13] | > 10
KG-1 [15] | > 10
KU-812 [3] | > 10
LAMA-84 [9] | > 10
ML-2 [5] | > 10
MOLM-13 [4] | > 10
MV4-11 [10] | > 10
Mono-Mac-6 [14] | > 10
NOMO-1 [2] | > 10
SHI-1 [7] | > 10
THP-1 [12] | > 10

cell viability [%]
Conditions | 1 nM | 10 nM | 100 nM | 1000 nM | 10000 nM
BV-173 [23] | 103 | 95.3 | 95 | 116 | 106
HEL [26] | 106 | 95.1 | 93.5 | 96.9 | 111
HL-60 [16] | 108 | 91.7 | 88 | 85.9 | 99.2
K-562 [21] | 95.8 | 97.9 | 95.8 | 101 | 109
KCL-22 [28] | 115 | 92.2 | 88.6 | 82.7 | 103
KG-1 [30] | 108 | 97.9 | 89.5 | 110 | 108
KU-812 [18] | 95.8 | 87.3 | 92.2 | 112 | 112
LAMA-84 [24] | 102 | 93.7 | 103 | 95.5 | 107
ML-2 [20] | 90.5 | 90.7 | 86.2 | 107 | 109
MOLM-13 [19] | 108 | 86.8 | 92.7 | 94.4 | 93.2
MV4-11 [25] | 109 | 96.4 | 95.9 | 93.2 | 98.1
Mono-Mac-6 [29] | 102 | 93.4 | 97.2 | 101 | 112
NOMO-1 [17] | 100 | 90.2 | 93.4 | 100 | 105
SHI-1 [22] | 113 | 95.3 | 101 | 95.8 | 102
THP-1 [27] | 99.6 | 96.3 | 96.2 | 107 | 102

O=C(c1c2ccccc2cc2ccccc12)N1CCC(N2CCC[C@@H](C(=O)N3CCOCC3)C2)CC1
Conditions | IC50 (cell viability) [µM]
BV-173 [8] | > 10
HEL [11] | > 10
HL-60 [1] | 1.81
K-562 [6] | > 10
KCL-22 [13] | > 10
KG-1 [15] | > 10
KU-812 [3] | > 10
LAMA-84 [9] | > 10
ML-2 [5] | > 10
MOLM-13 [4] | 2.77
MV4-11 [10] | 8.82
Mono-Mac-6 [14] | > 10
NOMO-1 [2] | > 10
SHI-1 [7] | > 10
THP-1 [12] | > 10

cell viability [%]
Conditions | 1 nM | 10 nM | 100 nM | 1000 nM | 10000 nM
BV-173 [23] | 111 | 108 | 118 | 86.5 | 70.9
HEL [26] | 106 | 108 | 110 | 77.3 | 94.7
HL-60 [16] | 104 | 69.9 | 118 | 59.2 | 41.5
K-562 [21] | 112 | 106 | 119 | 94.9 | 75.7
KCL-22 [28] | 107 | 108 | 118 | 99.6 | 78.3
KG-1 [30] | 110 | 102 | 111 | 94 | 85.6
KU-812 [18] | 100 | 108 | 103 | 95.3 | 96
LAMA-84 [24] | 109 | 108 | 105 | 94.5 | 86.5
ML-2 [20] | 126 | 118 | 119 | 98.5 | 86.4
MOLM-13 [19] | 122 | 103 | 109 | 62.4 | 53.7
MV4-11 [25] | 133 | 110 | 97.3 | 78.8 | 62.3
Mono-Mac-6 [29] | 101 | 109 | 93.4 | 89.1 | 75.8
NOMO-1 [17] | 106 | 108 | 104 | 99.6 | 95.2
SHI-1 [22] | 110 | 96.3 | 107 | 101 | 90
THP-1 [27] | 106 | 96.6 | 115 | 94.9 | 100

N=C(N)c1ccc(N=NNc2ccc(C(=N)N)cc2)cc1 [Diminazene]
Conditions | IC50 (cell viability) [µM]
BV-173 [8] | > 10
HEL [11] | > 10
HL-60 [1] | > 10
K-562 [6] | > 10
KCL-22 [13] | > 10
KG-1 [15] | > 10
KU-812 [3] | > 10
LAMA-84 [9] | > 10
ML-2 [5] | > 10
MOLM-13 [4] | > 10
MV4-11 [10] | > 10
Mono-Mac-6 [14] | > 10
NOMO-1 [2] | > 10
SHI-1 [7] | > 10
THP-1 [12] | > 10

cell viability [%]
Conditions | 1 nM | 10 nM | 100 nM | 1000 nM | 10000 nM
BV-173 [23] | 104 | 103 | 106 | 106 | 103
HEL [26] | 103 | 109 | 111 | 93.8 | 111
HL-60 [16] | 83 | 102 | 123 | 116 | 96.6
K-562 [21] | 102 | 99.3 | 119 | 94.5 | 96.7
KCL-22 [28] | 102 | 96.6 | 114 | 84.4 | 72.7
KG-1 [30] | 115 | 109 | 114 | 97.7 | 88.9
KU-812 [18] | 89.2 | 100 | 95.5 | 101 | 85.7
LAMA-84 [24] | 105 | 103 | 108 | 105 | 98.3
ML-2 [20] | 104 | 98.7 | 100 | 106 | 93.7
MOLM-13 [19] | 94.4 | 98.1 | 101 | 73.7 | 93.9
MV4-11 [25] | 113 | 100 | 94.6 | 92.2 | 77.9
Mono-Mac-6 [29] | 97 | 100 | 107 | 105 | 98.2
NOMO-1 [17] | 106 | 99 | 104 | 102 | 86.9
SHI-1 [22] | 100 | 102 | 116 | 95.3 | 95.8
THP-1 [27] | 105 | 99.7 | 107 | 103 | 86.3
